Results as given in patent US9573884B2 (priority 2010, dated 2017).
Where “and” joins values, the source holds several entries; their conditions need not be identical. Equal values may be shown once.

How the values were obtained:
Format in all cases: cell-based
[1] = test system: Staphylococcus aureas
[2] = test system: Pseudomonas aeruginosa and Staphylococcus aureas
[3] = test system: Pseudomonas aeruginosa

CC/C=C/CCCCCCCC(=O)NCCN1CC[N+](C)=C1CCCCCCC/C=C/CC [C12-13, C12 DETA Quat]
% Kill [1]: 48.3% and 33.1% | Overall Rating [2]: good | % Kill [3]: 27.1% and 13.7%
